What was measured:
[1] = tested on: human breast adenocarcinoma cell line, MCF-7; experiment: resazurin viability assay, 72 h (Table 1); assay type: cell-based; conditions: MCF7, 72h incubation, 156 nM-100 μM
Text: (§1) In our experiments three different cell lines were used. Cells were purchased from the American Type Culture Collection (ATCC, Manassas, Va., USA). The human breast adenocarcinoma cell line, MCF-7 cells were maintained in Dulbecco's Modified Eagle Medium/Nutrient Mixture F-12 (DMEM/F12) 10% fetal calf serum (FCS, Gibco) and mouse mammary carcinoma 4T1 and human promyelocytic leukemia, HL-60 cells were maintained in Roswell Park Memorial Institute 1640 medium (RPMI-1640) 10% FCS. Media were supplemented with 2 mM GlutaMAX, and 100 U/mL penicillin, 100 μg/mL streptomycin (Life Technologies, Carlsbad, Calif., USA). Cell cultures were maintained at 37° C. in a humidified incubator in an atmosphere of 5% CO2 (Sanyo, Japan).
(§2) For viability assays cells were seeded in 96 well plates (MCF7 and 4T1: 6000, HL60: 120.000 cells/well) and incubated overnight. Compounds were dissolved in dimethyl sulfoxide (DMSO). Cells were treated with an increasing concentration of compounds having the general formula (I.) (156 nM-100 μM). Cell viability was determined after 72h incubation. Resazurin reagent (Sigma-Aldrich) was dissolved in PBS (pH 7.4) at 0.15 mg/ml concentration, sterile filtered (0.22 μm, Merck Millipore) and aliquoted at −20° C. Resazurin reagent (Sigma-Aldrich) was added at a final concentration of 25 μg/ml. After 2 hours incubation at 37° C. 5% CO2 fluorescence (530 nm excitation/580 nm emission) was recorded on a multimode microplate reader (Cytofluor4000, PerSeptive Biosytems). Viability was calculated with relation to untreated control cells and blank wells containing media without cells. IC50 values (50% inhibiting concentration) were calculated by GraphPad Prism® 5 (La Jolla, Calif., USA).

[2] = tested on: human promyelocytic leukemia, HL-60 cells; experiment: resazurin viability assay, 72 h (Table 1); assay type: cell-based; conditions: 72h incubation, 156 nM-100 μM
Text: as §1, §2

[3] = tested on: mouse mammary carcinoma 4T1; experiment: resazurin viability assay, 72 h (Table 1); assay type: cell-based; conditions: 72h incubation, 156 nM-100 μM
Text: as §1, §2

| SMILES | IC50 [1] | IC50 [2] | IC50 [3] | melting point |
| --- | --- | --- | --- | --- |
| CC(C)(C)CC(C)(C)Nc1c(C(C)(C)C)[nH]c2c(C(=O)Nc3ccccc3)cnn12 [Example 34, 2-(Tert-butyl)-N-phenyl-3-((2,4,4-trimethylpentan-2-yl)amino)-1H-imidazo[1,2-b]pyrazole-7-carboxamide] | 18.3 µM | 0.604 µM | 28.5 µM | 147 °C |
| CC(C)(C)CC(C)(C)Nc1c(C(C)(C)C)[nH]c2c(C(=O)Nc3ccncc3)cnn12 [Example 37, 2-(Tert-butyl)-N-(pyridin-4-yl)-3-((2,4,4-trimethylpentan-2-yl)amino)-1H-imidazo[1,2-b]pyrazole-7-carboxamide] | 2.55 µM | 2.71 µM | 4.34 µM | 185 to 186 °C |
| CSc1ccc(NC(=O)c2cnn3c(NC(C)(C)CC(C)(C)C)c(C(C)(C)C)[nH]c23)cc1 [Example 56, 2-(Tert-butyl)-N-(4-(methylthio)phenyl)-3-((2,4,4-trimethylpentan-2-yl)amino)-1H-imidazo[1,2-b]pyrazole-7-carboxamide] | 21.9 µM | 3.93 µM | > 50 µM | 169 to 170 °C |
| CC(C)(C)CC(C)(C)Nc1c(C(C)(C)C)[nH]c2c(C(=O)Nc3ccc(Br)cc3)cnn12 [Example 52, N-(4-Bromophenyl)-2-(tert-butyl)-3-((2,4,4-trimethylpentan-2-yl)amino)-1H-imidazo[1,2-b]pyrazole-7-carboxamide] | > 50 µM | 19.7 µM | > 50 µM | 153 to 154 °C |
| CC(C)(C)CC(C)(C)Nc1c(C2CCCCC2)[nH]c2c(C(N)=O)cnn12 [Example 16, 2-Cyclohexyl-3-((2,4,4-trimethylpentan-2-yl)amino)-1H-imidazo[1,2-b]pyrazole-7-carbox-amide] | 11.1 µM | 9.35 µM | 12.3 µM | 190 to 192 °C |
| CC(C)c1[nH]c2c(C(N)=O)cnn2c1NC(C)(C)CC(C)(C)C [Example 25, 2-Isopropyl-3-((2,4,4-trimethylpentan-2-yl)amino)-1H-imidazo[1,2-b]pyrazole-7-carbox-amide] | 10.6 µM | 7.79 µM | 3.63 µM | 132 to 134 °C |
| COc1ccc(NC(=O)c2cnn3c(NC(C)(C)CC(C)(C)C)c(C(C)(C)C)[nH]c23)cc1 [Example 43, 2-(Tert-butyl)-N-(4-methoxyphenyl)-3-((2,4,4-trimethylpentan-2-yl)amino)-1H-imidazo[1,2-b]pyrazole-7-carboxamide] | 17.8 µM | 1.11 µM | 24.7 µM | 187 to 188 °C |
| Cc1ccc(-c2[nH]c3c(C(N)=O)cnn3c2NC(C)(C)CC(C)(C)C)cc1 [Example 6, 2-(p-Tolyl)-3-((2,4,4-trimethylpentan-2-yl)amino)-1H-imidazo[1,2-b]pyrazole-7-carbox-amide] | 17 µM | 12.6 µM | 12.3 µM | 218 to 219 °C |
| CC(C)(C)CC(C)(C)Nc1c(C(C)(C)C)[nH]c2c(C(=O)Nc3nccs3)cnn12 [Example 38, 2-(Tert-butyl)-N-(thiazol-2-yl)-3-((2,4,4-trimethylpentan-2-yl)amino)-1H-imidazo[1,2-b]pyrazole-7-carboxamide] | 1.95 µM | 2.86 µM | 2.41 µM | 125 to 127 °C |
| CC(C)(C)CC(C)(C)Nc1c(C(C)(C)C)[nH]c2c(C(=O)Nc3ccc(F)c(F)c3)cnn12 [Example 59, 2-(Tert-butyl)-N-(3,4-difluorophenyl)-3-((2,4,4-trimethylpentan-2-yl)amino)-1H-imidazo[1,2-b]pyrazole-7-carboxamide] | 10.3 µM | 2.41 µM | 19 µM | 162 to 164 °C |
| C/C(=C\c1ccccc1)c1[nH]c2c(C(N)=O)cnn2c1NC(C)(C)C [Example 15, (E)-3-(Tert-butylamino)-2-(1-phenylprop-1-en-2-yl)-1H-imidazo[1,2-b]pyrazole-7-carbox-amide] | > 50 µM | 29.2 µM | > 50 µM | 190 to 191 °C |
| CN(C)c1ccc(NC(=O)c2cnn3c(NC(C)(C)CC(C)(C)C)c(C(C)(C)C)[nH]c23)cc1 [Example 57, 2-(Tert-butyl)-N-(4-(dimethylamino)phenyl)-3-((2,4,4-trimethylpentan-2-yl)amino)-1H-imidazo[1,2-b]pyrazole-7-carboxamide] | 10 µM | 0.297 µM | 11.8 µM | 176 to 177 °C |
| CC(C)(C)CC(C)(C)Nc1c(C(C)(C)C)[nH]c2c(C(=O)Nc3ccon3)cnn12 [Example 39, 2-(Tert-butyl)-N-(isoxazol-3-yl)-3-((2,4,4-trimethylpentan-2-yl)amino)-1H-imidazo[1,2-b]pyrazole-7-carboxamide] | 1.7 µM | 0.935 µM | 2.85 µM | 185 to 186 °C |
| COc1ccc(-c2[nH]c3c(C(N)=O)cnn3c2NC(C)(C)CC(C)(C)C)cc1 [Example 7, 2-(4-Methoxyphenyl)-3-((2,4,4-trimethylpentan-2-yl)amino)-1H-imidazo[1,2-b]pyrazole-7-carboxamide] | 18.6 µM | 19 µM | 25.2 µM | 124 to 125 °C |
| CC(C)(C)CC(C)(C)Nc1c(C(C)(C)C)[nH]c2c(C(=O)Nc3ccc(Cl)cc3)cnn12 [Example 51, 2-(Tert-butyl)-N-(4-chlorophenyl)-3-((2,4,4-trimethylpentan-2-yl)amino)-1H-imidazo[1,2-b]pyrazole-7-carboxamide] | 29.3 µM | 3.05 µM | 30.7 µM | – |
| CC(C)(C)CC(C)(C)Nc1c(C(C)(C)C)[nH]c2c(C(=O)Nc3cccnc3)cnn12 [Example 36, 2-(Tert-butyl)-N-(pyridin-3-yl)-3-((2,4,4-trimethylpentan-2-yl)amino)-1H-imidazo[1,2-b]pyrazole-7-carboxamide] | 1.9 µM | 0.934 µM | 2.59 µM | 186 to 187 °C |
| CC(C)(C)c1[nH]c2c(C(N)=O)cnn2c1Nc1ccc(F)cc1 [Example 21, 2-(Tert-butyl)-3-((4-fluorophenyl)amino)-1H-imidazo[1,2-b]pyrazole-7-carboxamide] | 40.5 µM | 24.4 µM | > 50 µM | 249 to 250 °C |
| CC(C)(C)CC(C)(C)Nc1c(C(C)(C)C)[nH]c2c(C(=O)Nc3ccc(F)cc3)cnn12 [Example 50, 2-(Tert-butyl)-N-(4-fluorophenyl)-3-((2,4,4-trimethylpentan-2-yl)amino)-1H-imidazo[1,2-b]pyrazole-7-carboxamide] | 2.35 µM | 0.183 µM | 7.43 µM | 188 °C |
| CCCCNC(=O)c1cnn2c(NC(C)(C)CC(C)(C)C)c(C(C)(C)C)[nH]c12 [Example 29, 2-(Tert-butyl)-N-butyl-3-((2,4,4-trimethylpentan-2-yl)amino)-1H-imidazo[1,2-b]pyrazole-7-carboxamide] | 34.1 µM | 2.72 µM | > 50 µM | 147 to 148 °C |
| CC(C)(C)CC(C)(C)Nc1c(-c2ccccc2)[nH]c2c(C(N)=O)cnn12 [Example 2, 2-Phenyl-3-((2,4,4-trimethylpentan-2-yl)amino)-1H-imidazo[1,2-b]pyrazole-7-carbox-amide] | – | – | – | 154 to 156 °C |
| CC(C)(C)Nc1c(-c2ccccc2)[nH]c2c(C(N)=O)cnn12 [Example 1, 3-(Tert-butylamino)-2-phenyl-1H-imidazo[1,2-b]pyrazole-7-carboxamide] | – | – | – | 246 to 248 °C |
| CC(C)(C)CC(C)(C)Nc1c(C(C)(C)C)[nH]c2c(C(=O)Nc3ccc(F)cn3)cnn12 [Example 72, 2-(Tert-butyl)-N-(5-fluoropyridin-2-yl)-3-((2,4,4-trimethylpentan-2-yl)amino)-1H-imidazo[1,2-b]pyrazole-7-carboxamide] | – | – | – | 140 °C |
| CC(C)(C)CC(C)(C)Nc1c(C(C)(C)C)[nH]c2c(C(=O)NC(C)(C)C)cnn12 [Example 30, N,2-Di-tert-butyl-3-((2,4,4-trimethylpentan-2-yl)amino)-1H-imidazo[1,2-b]pyrazole-7-carboxamide] | – | – | – | 177 to 178 °C |
| CC(C)(C)CC(C)(C)Nc1c(C(C)(C)C)[nH]c2c(C(=O)NC3CCCC3)cnn12 [Example 32, 2-(Tert-butyl)-N-cyclopentyl-3-((2,4,4-trimethylpentan-2-yl)amino)-1H-imidazo[1,2-b]pyrazole-7-carboxamide] | – | – | – | 182 to 183 °C |

From US20220064167A1, “IMIDAZO-PYRAZOLE CARBOXAMIDE DERIVATIVES AS ANTICANCER AGENTS AND THE SYNTHESIS THEREOF” (AVIDIN KFT., priority 2018, published 2022)
